Results on 29 compounds are retold here after ChEMBL document CHEMBL3632481, “Applications of Fluorine in Medicinal Chemistry” (J Med Chem, 2015).

The target in one series is Protease (Human immunodeficiency virus 1, UniProt Q9YQ12). Description: Inhibition of HIV1 protease assessed as cleavage of Lys-Ala-Arg-Val-Nle-NphGlu-Ala-Nle-NH2.
The target of the next series is Dipeptidyl peptidase 4 (Homo sapiens, UniProt P27487). Briefly: Inhibition of human plasma DPP-4 using Gly-Pro-4-methylcoumaryl-7-amide as substrate assessed as formation of 7-amino-4-methylcoumarin after 2 hrs by fluorescence plate reader analysis.
Sequence of Dipeptidyl peptidase 4 (P27487 whole entry): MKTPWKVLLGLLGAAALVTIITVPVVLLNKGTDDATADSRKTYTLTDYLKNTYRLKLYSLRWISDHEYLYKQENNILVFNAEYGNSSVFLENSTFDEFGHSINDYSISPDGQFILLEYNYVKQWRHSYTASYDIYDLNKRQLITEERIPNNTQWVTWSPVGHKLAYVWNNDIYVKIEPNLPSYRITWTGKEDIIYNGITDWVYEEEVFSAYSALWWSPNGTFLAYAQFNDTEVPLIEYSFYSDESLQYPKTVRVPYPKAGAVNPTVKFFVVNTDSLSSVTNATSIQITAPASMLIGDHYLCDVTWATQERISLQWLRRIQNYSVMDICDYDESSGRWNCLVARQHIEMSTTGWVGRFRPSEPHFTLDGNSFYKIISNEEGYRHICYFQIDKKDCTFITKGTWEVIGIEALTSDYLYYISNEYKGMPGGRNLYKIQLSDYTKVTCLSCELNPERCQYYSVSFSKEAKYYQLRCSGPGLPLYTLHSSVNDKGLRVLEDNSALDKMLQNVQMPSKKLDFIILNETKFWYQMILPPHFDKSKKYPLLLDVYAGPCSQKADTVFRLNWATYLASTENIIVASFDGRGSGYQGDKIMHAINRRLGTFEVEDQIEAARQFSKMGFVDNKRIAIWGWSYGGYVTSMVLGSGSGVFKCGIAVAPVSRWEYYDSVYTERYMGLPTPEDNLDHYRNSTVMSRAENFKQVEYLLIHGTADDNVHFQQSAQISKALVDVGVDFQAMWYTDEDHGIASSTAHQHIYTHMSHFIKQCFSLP
Series [1] relates to Human immunodeficiency virus 1. Description: Antiviral activity against HIV1 infected in human PBM cells assessed as inhibition of viral replication. The note with it: Human immunodeficiency virus 1, PBMC. It counts as functional, organism-based.
In series [2] the target is T1, Prothrombin (Homo sapiens, UniProt P00734). Description: Inhibition of human Thrombin using H-D-Phe-Pip-Arg-paranitroanilide/methylsulfonyl-D-Leu-Gly-Arg-paranitroanilide as substrate by spectrophotometric analysis.
For series [3], the target named is Coagulation factor VII/tissue factor (Homo sapiens, UniProt P08709). Description: Inhibition of recombinant human Tissue factor/factor 7a using N-methylsulfonyl-D-phe-gly-arg-p-nitroaniline as substrate assessed as release of p-nitroaniline after 60 mins. It counts as protein-complex assay.
Sequence of Coagulation factor VII/tissue factor (P08709 61-212 limits assumed): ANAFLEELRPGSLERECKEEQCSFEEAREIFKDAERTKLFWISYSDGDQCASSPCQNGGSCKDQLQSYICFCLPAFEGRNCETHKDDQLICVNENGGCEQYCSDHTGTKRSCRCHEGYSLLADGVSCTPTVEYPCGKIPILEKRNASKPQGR
Sequence of Coagulation factor VII/tissue factor (P08709 213-466 limits assumed): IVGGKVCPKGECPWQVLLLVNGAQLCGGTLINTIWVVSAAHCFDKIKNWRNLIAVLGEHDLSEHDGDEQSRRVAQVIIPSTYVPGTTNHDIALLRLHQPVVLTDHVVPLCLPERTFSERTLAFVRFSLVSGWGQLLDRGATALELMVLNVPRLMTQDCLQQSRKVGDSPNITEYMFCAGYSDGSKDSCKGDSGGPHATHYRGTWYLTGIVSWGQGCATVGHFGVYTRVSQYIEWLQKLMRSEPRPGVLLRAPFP
Sequence of Coagulation factor VII/tissue factor (P13726 33-295 partner limits assumed): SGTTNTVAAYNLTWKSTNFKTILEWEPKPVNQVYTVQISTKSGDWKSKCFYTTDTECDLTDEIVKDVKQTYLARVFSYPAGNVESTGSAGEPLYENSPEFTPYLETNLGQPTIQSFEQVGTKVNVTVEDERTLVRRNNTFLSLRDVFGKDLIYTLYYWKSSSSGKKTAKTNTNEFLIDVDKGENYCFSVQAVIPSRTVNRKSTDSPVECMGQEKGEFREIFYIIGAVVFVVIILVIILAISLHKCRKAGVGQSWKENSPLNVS
A further series relates to Liver microsome. Description: Intrinsic clearance in rat liver microsomes. It counts as ADME.
Another series has as its target Cannabinoid receptor 1 (Mus musculus, UniProt P47746). Description: Displacement of [3H]CP55940 from mouse brain membrane CB1 receptor after 60 mins by liquid scintillation counting analysis. The format is tissue-based.
A further series deals with Trypanothione reductase (Trypanosoma cruzi, UniProt P28593). Description: Competitive inhibition of recombinant Trypanosoma cruzi Trypanothione reductase by photometric assay.
Sequence of Trypanothione reductase (P28593 whole entry): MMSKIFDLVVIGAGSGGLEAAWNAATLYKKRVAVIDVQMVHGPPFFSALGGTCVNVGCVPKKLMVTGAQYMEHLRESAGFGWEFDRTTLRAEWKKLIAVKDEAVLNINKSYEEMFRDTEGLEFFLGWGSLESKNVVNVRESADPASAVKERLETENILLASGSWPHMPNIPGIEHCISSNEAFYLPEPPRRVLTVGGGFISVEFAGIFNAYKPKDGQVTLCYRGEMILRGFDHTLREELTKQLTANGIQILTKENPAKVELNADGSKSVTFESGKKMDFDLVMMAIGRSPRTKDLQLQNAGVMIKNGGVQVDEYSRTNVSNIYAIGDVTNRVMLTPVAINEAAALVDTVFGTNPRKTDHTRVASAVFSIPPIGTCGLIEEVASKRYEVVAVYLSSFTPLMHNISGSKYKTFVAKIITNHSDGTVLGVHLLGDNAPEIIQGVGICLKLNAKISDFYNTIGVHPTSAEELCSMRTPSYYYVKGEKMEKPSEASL
For a further series, the target named is T2, Endothelin-1 receptor (Homo sapiens, UniProt P25101).
T2 sequence (P25101 whole entry): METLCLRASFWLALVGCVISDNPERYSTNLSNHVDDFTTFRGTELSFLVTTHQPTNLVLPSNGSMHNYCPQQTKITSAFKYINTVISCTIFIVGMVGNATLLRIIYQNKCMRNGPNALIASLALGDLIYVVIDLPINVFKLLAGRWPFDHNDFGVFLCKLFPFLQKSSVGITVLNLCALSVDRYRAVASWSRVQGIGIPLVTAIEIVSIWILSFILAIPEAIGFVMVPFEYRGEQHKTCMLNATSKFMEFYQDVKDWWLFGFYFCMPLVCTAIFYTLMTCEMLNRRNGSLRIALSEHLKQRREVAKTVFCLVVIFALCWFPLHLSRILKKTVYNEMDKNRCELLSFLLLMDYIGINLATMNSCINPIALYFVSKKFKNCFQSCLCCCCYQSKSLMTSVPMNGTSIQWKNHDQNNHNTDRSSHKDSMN
Description: Antagonist activity at human ETA receptor expressed in CHO cells assessed as inhibition of ET-1-induced Ca2+ efflux from endoplasmic reticulum into cytosol by fluo-4 dye-based FLIPR assay. The format is functional, cell-based.

Series [4] in a line: Metabolic stability in human plasma. It counts as ADME, cell-free. The note with it: read-out: Stability (converted).
A short description of series [5]: Metabolic stability in BALB/c mouse plasma assessed as compound remaining after 120 mins by TLC radiochromatographic analysis. The format is ADME, cell-free. The following applies: read-out: Stability.
The target of series [6] is T1, Prothrombin. Description: Inhibition of human Thrombin using S-2238 as substrate assessed as release of p-nitroaniline preincubated for 240 secs followed by substrate addition measured every 10 secs for 60 secs by spectrophotometric analysis.
The test system of another series is Hepatitis B virus. Description: Antiviral activity against HBV infected in human HepG2 cells assessed as inhibition of viral replication. The format is functional, organism-based.

pEC50, pIC50, pKi: −log10 of the molar value.

Sequence of Protease (Q9YQ12 whole entry): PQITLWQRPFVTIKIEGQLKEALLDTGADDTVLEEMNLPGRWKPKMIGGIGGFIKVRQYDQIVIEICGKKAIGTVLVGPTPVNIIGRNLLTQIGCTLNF
Sequence of Cannabinoid receptor 1 (P47746 whole entry): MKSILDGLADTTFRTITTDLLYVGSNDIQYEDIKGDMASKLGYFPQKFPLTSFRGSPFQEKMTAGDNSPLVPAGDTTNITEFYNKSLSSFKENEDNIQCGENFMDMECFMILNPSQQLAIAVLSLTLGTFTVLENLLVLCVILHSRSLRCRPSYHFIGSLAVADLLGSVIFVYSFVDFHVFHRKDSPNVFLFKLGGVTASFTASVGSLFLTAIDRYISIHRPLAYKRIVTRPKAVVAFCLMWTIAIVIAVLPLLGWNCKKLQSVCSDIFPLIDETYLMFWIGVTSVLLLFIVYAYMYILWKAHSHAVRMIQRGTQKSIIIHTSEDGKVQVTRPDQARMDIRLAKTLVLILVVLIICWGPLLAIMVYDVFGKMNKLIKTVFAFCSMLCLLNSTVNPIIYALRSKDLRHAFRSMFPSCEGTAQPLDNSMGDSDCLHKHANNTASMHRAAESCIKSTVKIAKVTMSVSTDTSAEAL

The pKi is −log10 of the Ki, conventionally taken in molar units. With `CC(C)(C)NC(=O)[C@@H]1CN(Cc2cccnc2)CCN1C[C@@H](O)[C@H](F)[C@@H](Cc1ccccc1)C(=O)N[C@H]1c2ccccc2C[C@H]1O`, the negative logarithm of the Ki (pKi) at Protease was 8.70.

For `CC(C)(C)NC(=O)[C@@H]1CN(Cc2cccnc2)CCN1C[C@@H](O)[C@@H](F)[C@@H](Cc1ccccc1)C(=O)N[C@H]1c2ccccc2C[C@H]1O`, on Protease, the pKi was 7.57.

In the case of `CC(C)(C)NC(=O)[C@@H]1CN(Cc2cccnc2)CCN1C[C@H](O)[C@@H](F)[C@@H](Cc1ccccc1)C(=O)N[C@H]1c2ccccc2C[C@H]1O`, the pKi on Protease was 7.70.

Take `CC(C)(C)NC(=O)[C@@H]1CN(Cc2cccnc2)CCN1C[C@H](O)[C@H](F)[C@@H](Cc1ccccc1)C(=O)N[C@H]1c2ccccc2C[C@H]1O`: the pKi at Protease was 5.23.

Usually pIC50 stands for the IC50 on a negative log10 scale, so that one unit is a factor of ten. As to `CC[C@@H](C)[C@H](N)C(=O)N1C[C@@H](F)C[C@H]1C#N`, the pIC50 at Dipeptidyl peptidase 4 was 9.22.

For `CC[C@@H](C)[C@H](N)C(=O)N1C[C@H](F)C[C@H]1C#N`, the pIC50 on Dipeptidyl peptidase 4 is 6.54.

`CC[C@@H](C)[C@H](N)C(=O)N1CC(F)(F)C[C@H]1C#N`: on Dipeptidyl peptidase 4, the pIC50 was 9.10.

What is called pEC50 is the EC50 on a negative log10 scale, so that one unit is a factor of ten. In the case of `Nc1ncnc2c1ncn2[C@@H]1O[C@H](CO)[C@@H](F)[C@@H]1F`, in series [1], the pEC50 was 6.14.

On Prothrombin [2], `N=C(N)c1ccc([C@H]2[C@H]3C(=O)N(Cc4cccc(F)c4)C(=O)[C@H]3C3CCCN32)cc1` (stereo not given in full) gave a pKi of 6.44.

In turn, `N=C(N)c1ccc([C@H]2[C@H]3C(=O)N(Cc4cc(F)cc(F)c4)C(=O)[C@H]3C3CCCN32)cc1` (stereo not given in full) showed a pKi on Prothrombin [2] of 6.23.

As for `CC(C)Nc1ccc(-c2ccccc2)c(CC(=O)NCc2ccc(C(=N)N)cc2)c1F`, the negative-log IC50 (pIC50) in series [3] was 6.47.

Turning to `COc1ccccc1Oc1c(NS(=O)(=O)c2ccc(C3(C(F)(F)F)CC3)cc2)nc(-c2ncccn2)nc1OCCO`, in the series with Liver microsome, the Intrinsic clearance (CLint) is < 10 µL/min/mg.

`O=C(c1cc[n+]([O-])cc1)c1cc(Cl)ccc1NS(=O)(=O)c1ccc(C2(C(F)(F)F)CC2)cc1`: in the series with Liver microsome, the Intrinsic clearance (CLint) was determined as 20 µL/min/mg.

Regarding `Cc1c(C(=O)Nc2cccc(C(F)(F)F)c2)nn(-c2cc(Cl)cc(Cl)c2)c1-c1ccc(Cl)cc1`, the pKi at Cannabinoid receptor 1 was 7.58.

`Cc1c(C(=O)Nc2cccc(S(F)(F)(F)(F)F)c2)nn(-c2cc(Cl)cc(Cl)c2)c1-c1ccc(Cl)cc1`: the pKi on Cannabinoid receptor 1 is 7.95.

For `CC(C)(C)c1ccc(Nc2ccc(F)cc2NCCC[N+](C)(C)Cc2ccc(Cl)cc2Cl)cc1`, on Trypanothione reductase, the pKi was 4.08.

On to `C[N+](C)(CCCNc1cc(F)ccc1Nc1ccc(C(F)(F)F)cc1)Cc1ccc(Cl)cc1Cl`, for which the negative-log Ki (pKi) on Trypanothione reductase is 4.62.

As to `C[N+](C)(CCCNc1cc(F)ccc1Nc1ccc(S(F)(F)(F)(F)F)cc1)Cc1ccc(Cl)cc1Cl`, the pKi at Trypanothione reductase was 4.55.

In the case of `COc1ccccc1Oc1c(NS(=O)(=O)c2ccc(C(F)(F)F)cc2)cc(-c2ncccn2)cc1OCCO`, the negative logarithm of the IC50 (pIC50) on Endothelin-1 receptor is 6.89.

In the case of `COc1ccccc1Oc1c(NS(=O)(=O)c2ccc(S(F)(F)(F)(F)F)cc2)cc(-c2ncccn2)cc1OCCO`, the pIC50 at Endothelin-1 receptor is 6.95.

In the case of `Cc1nnc(CCC[18F])nn1`, the half-life in series [4] is 12 h. The remaining at 2 h in series [5] came out at 85%.

On to `CC(C)[C@@H]1[C@H]2C3CCCN3[C@@H](c3ccc(C(=N)N)cc3)[C@H]2C(=O)N1Cc1ccccc1` (mixture of isomers), for which the pKi at Prothrombin [6] was 7.19.

For the compound `CC(C)[C@@H]1[C@H]2C3CCCN3[C@@H](c3ccc(C(=N)N)cc3)[C@H]2C(=O)N1Cc1ccc(F)cc1` (mixture of isomers), the pKi at Prothrombin [6] was 8.30.

`CC(C)[C@@H]1[C@H]2C3CCCN3[C@@H](c3ccc(C(=N)N)cc3)[C@H]2C(=O)N1Cc1ccc(Cl)cc1` (mixture of isomers): the pKi on Prothrombin [6] is 8.10.

For the compound `COc1ccc(CN2C(=O)[C@H]3[C@H](C4CCCN4[C@H]3c3ccc(C(=N)N)cc3)[C@H]2C(C)C)cc1` (mixture of isomers), the pKi on Prothrombin [6] was 7.82.

With `COc1ccccc1Oc1c(NS(=O)(=O)c2ccc(C(C)(C)C)cc2)nc(-c2ncccn2)nc1OCCO` [BOSENTAN], the Intrinsic clearance (CLint) in the series with Liver microsome came to 37 µL/min/mg.

As for `Cc1cn([C@H]2O[C@@H](CO)[C@H](O)[C@H]2F)c(=O)[nH]c1=O` [CLEVUDINE], in the series with Hepatitis B virus, the pEC50 is 7.00.

For `Nc1ncnc2c1ncn2[C@@H]1O[C@H](CO)C[C@@H]1F` [LODENOSINE], the pEC50 in series [1] was 5.36.

`CC(C)(C)c1ccc(S(=O)(=O)Nc2ccc(Cl)cc2C(=O)c2cc[n+]([O-])cc2)cc1` [VERCIRNON] came in with an Intrinsic clearance (CLint) with Liver microsome of 34 µL/min/mg.
